The values below come from the supplement of paper PMC11061612.

What all share (test): Bliss excess, mean over the matrix (fraction); higher = more synergy
The test system of one experiment is J82 (Bladder Carcinoma). In a few lines:
(§1)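 Cell lines in DMEM/F12 or RPMI with 10% FBS were plated in 1536-well plates, held 24 hours at 37°C, 5% CO2, then given two-drug dose matrices for 72 hours (DMSO typically 0.2%). Viability was read by CellTiter-Glo 2.0 luminescence and scaled as inhibition from 0 (vehicle wells) to 1 (blank wells). Combination Emax is the second-highest inhibition in the matrix; Bliss excess is observed combination effect minus expected EA + EB − EA·EB, EA and EB being single-agent effects.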

The subject of experiment [1] is KARPAS-1106P (B-Cell Non-Hodgkin's Lymphoma). In a few lines: as §1
For experiment [2], the system named is SW1783 (Low Grade Glioma). In a few lines: as §1
Experiment [3] deals with TGBC24TKB (Biliary Tract Carcinoma). In a few lines: as §1
The test system of another experiment is ES7 (Ewing's Sarcoma). In a few lines:
as §1

Experiment [4] deals with MDA-MB-157 (Breast Carcinoma). In a few lines: as §1
Experiment [5] deals with MFH-ino (Other Solid Carcinomas). In a few lines:
as §1

For another experiment, the system named is CAL-78 (Chondrosarcoma). In a few lines:
as §1

A further experiment deals with IGR-1 (Melanoma). In a few lines: as §1
The subject of experiment [6] is DMS-273 (Small Cell Lung Carcinoma). In a few lines: as §1
Experiment [7] has as its system OCI-AML2 (Acute Myeloid Leukemia). In a few lines:
as §1

Experiment [8] concerns NCI-H1781 (Lung Adenocarcinoma). In a few lines:
as §1

Experiment [9] deals with NCI-H1299 (Non-Small Cell Lung Carcinoma). In a few lines: as §1
The subject of experiment [10] is SUIT-2 (Pancreatic Carcinoma). In a few lines:
as §1

Experiment [11] has as its system NCI-H1793 (Lung Adenocarcinoma). In a few lines:
as §1

Experiment [12] relates to SW756 (Cervical Carcinoma). In a few lines:
as §1

The test system of experiment [13] is EM-2 (Chronic Myelogenous Leukemia). In a few lines:
as §1

For experiment [14], the system named is C3A (Hepatocellular Carcinoma). In a few lines:
as §1

Experiment [15] has as its system KATOIII (Gastric Carcinoma). In a few lines:
as §1

The subject of experiment [16] is HT-29 (Colorectal Carcinoma). In a few lines: as §1

Take `Cc1c2c(nn1C)CSCc1cc(n(C)n1)CSc1cc(c3ccccc3c1)OCCCc1c(C(=O)O)n(C)c3c-2c(Cl)ccc13` [AZD5991] + CC1(C)CCC(CN2CCN(c3ccc(C(=O)NS(=O)(=O)c4ccc(NCC5CCOCC5)c([N+](=O)[O-])c4)c(Oc4cnc5[nH]ccc5c4)c3)CC2)=C(c2ccc(Cl)cc2)C1 [Venetoclax] (first compound max 1 µM, 7x7, partner max 1 µM): the Bliss excess with J82 (Bladder Carcinoma) was -0.0232; in experiment [1], -0.0146; in experiment [2] it was -0.0164; in experiment [3], -0.0051; in the experiment on ES7 (Ewing's Sarcoma), 0.102; in [4], 0.004. The Bliss excess is -0.0512 in [5]; -0.0118 in the experiment with CAL-78 (Chondrosarcoma); 0.2 in the experiment with IGR-1 (Melanoma); -0.0099 in experiment [6]; 0.143 in experiment [7]; -0.0597 in [8]. In addition, the Bliss excess is -0.031 in experiment [9]; -0.0287 in experiment [10]; -0.0081 in experiment [11]; -0.0331 in experiment [12]; 0.248 in [13]; -0.0519 in [14]. Besides, the Bliss excess is -0.0176 in [15] and -0.0015 in experiment [16].

As for `CCc1c2c(nc3ccc(O)cc13)-c1cc3c(c(=O)n1C2)COC(=O)[C@]3(O)CC` [SN-38] + CN(C)CCCOc1ccc(-c2ccc3ncc4c(c3c2)n(C2CCOCC2)c(=O)n4C)cn1 [AZD0156] (first compound max 0.3 µM, 7x7, partner max 1 µM), the Bliss excess in the experiment with J82 (Bladder Carcinoma) is -0.0299; in experiment [1] it was -0.0346; in [2], -0.039; in [3] it was 0.0476; in the experiment with ES7 (Ewing's Sarcoma), 0.0565; in experiment [4], 0.0653. Moreover, the Bliss excess in experiment [5] is -0.0032; in the experiment on CAL-78 (Chondrosarcoma), -0.0547; with IGR-1 (Melanoma), 0.0179; in [6], 0.0377; in [7], 0.0764; in experiment [8] it was 0.0554. The Bliss excess is 0.0495 in experiment [9]; 0.0446 in experiment [10]; -0.026 in experiment [11]; -0.0273 in experiment [12]; 0.0812 in experiment [13]; -0.0646 in experiment [14]. Besides, the Bliss excess in experiment [15] was -0.0305; in [16], 0.0693.

For the molecule `COc1cccc(OCCCN)c1-c1cc(Nc2cnc(C#N)cn2)n[nH]1` [Prexasertib] + O=C(c1cc(Cc2n[nH]c(=O)c3ccccc23)ccc1F)N1CCN(C(=O)C2CC2)CC1 [Olaparib] (first compound max 1 µM, 7x7, partner max 10 µM), the Bliss excess was 0.033 in the experiment on J82 (Bladder Carcinoma); -0.0936 in experiment [1]; -0.0344 in experiment [2]; -0.0191 in experiment [3]; 0.0058 with ES7 (Ewing's Sarcoma); -0.104 in experiment [4]. The Bliss excess in experiment [5] is -0.0326; in the experiment on CAL-78 (Chondrosarcoma) it was -0.0535; in the experiment with IGR-1 (Melanoma), 0.0102; in [6], -0.0009; in [7] it was -0.0242; in [8] it was -0.0036. Also, the Bliss excess in experiment [9] was -0.0694; in [10], -0.0219; in experiment [11] it was -0.0106; in [12], 0.0038; in [13], 0.0164; in [14], -0.0461. For the same molecule, the Bliss excess in experiment [15] was -0.149; in [16], -0.0732.

For the molecule `COc1cccc(OCCCN)c1-c1cc(Nc2cnc(C#N)cn2)n[nH]1` [Prexasertib] + CN(C)CCCOc1ccc(-c2ccc3ncc4c(c3c2)n(C2CCOCC2)c(=O)n4C)cn1 [AZD0156] (first compound max 1 µM, 7x7, partner max 1 µM), the Bliss excess was 0.0036 in the experiment on J82 (Bladder Carcinoma); -0.0308 in experiment [1]; -0.0111 in [2]; -0.0414 in [3]; -0.0329 in the experiment on ES7 (Ewing's Sarcoma); -0.0226 in [4]. Also, the Bliss excess in experiment [5] is 0.0142; with CAL-78 (Chondrosarcoma) it was -0.0165; in the experiment on IGR-1 (Melanoma), 0.0399; in [6] it was -0.0183; in experiment [7], -0.0276; in experiment [8], -0.0803. For the same molecule, the Bliss excess in experiment [9] is -0.0332; in experiment [10] it was -0.0055; in [11] it was -0.0227; in [12], -0.0179; in experiment [13], -0.0279; in experiment [14], 0.0035. Further, the Bliss excess was -0.0053 in experiment [15] and -0.0343 in [16].

`COc1cccc(OCCCN)c1-c1cc(Nc2cnc(C#N)cn2)n[nH]1` [Prexasertib] + C[C@@H]1COCCN1C2=NC(=NC(=C2)C3(CC3)[S@](=N)(=O)C)C4=C5C=CNC5=NC=C4 [AZD6738] (first compound max 1 µM, 7x7, partner max 10 µM): the Bliss excess with J82 (Bladder Carcinoma) is -0.0198; in experiment [1], -0.0714; in [2], 0.0261; in experiment [3], -0.0038; in the experiment on ES7 (Ewing's Sarcoma), -0.0416; in [4], -0.0256. Moreover, the Bliss excess was 0.0457 in [5]; -0.0331 with CAL-78 (Chondrosarcoma); -0.0091 with IGR-1 (Melanoma); -0.0374 in [6]; -0.021 in experiment [7]; 0.006 in [8]. Also, the Bliss excess is -0.0013 in experiment [9]; -0.03 in experiment [10]; -0.0106 in experiment [11]; -0.0307 in experiment [12]; -0.0344 in [13]; -0.034 in [14]. Also, the Bliss excess in experiment [15] is 0.0124; in experiment [16], -0.0361.

For the molecule `CC1(C)CCC(CN2CCN(c3ccc(C(=O)NS(=O)(=O)c4ccc(NCC5CCOCC5)c([N+](=O)[O-])c4)c(Oc4cnc5[nH]ccc5c4)c3)CC2)=C(c2ccc(Cl)cc2)C1` [Venetoclax] + COc1cc(Nc2ncc3c(n2)-c2ccc(Cl)cc2C(c2c(F)cccc2OC)=NC3)ccc1C(=O)O [Alisertib] (first compound max 1 µM, 7x7, partner max 10 µM), the Bliss excess in the experiment on J82 (Bladder Carcinoma) is -0.0336; in experiment [1], 0.103; in experiment [2], -0.0178; in experiment [3] it was 0.0487; in the experiment with ES7 (Ewing's Sarcoma) it was 0.0686; in [4], 0.014. The Bliss excess in experiment [5] was -0.0729; with CAL-78 (Chondrosarcoma), -0.0353; in the experiment with IGR-1 (Melanoma), 0.0759; in experiment [6], 0.0086; in [7], 0.0826; in [8], -0.0303. Also, the Bliss excess in experiment [9] is 0.0391; in experiment [10] it was -0.0515; in experiment [11] it was -0.0577; in experiment [12], -0.0426; in experiment [13], 0.24; in [14], -0.0617. The Bliss excess in experiment [15] was -0.0587; in [16], 0.0016.

As for `COc1cc2c(cc1OCCCCCOc1cc3c(cc1OC)C(=O)N1C=C(C)C[C@H]1C=N3)N=C[C@@H]1CC(C)=CN1C2=O` [SG3199] + O=C(c1cc(Cc2n[nH]c(=O)c3ccccc23)ccc1F)N1CCN(C(=O)C2CC2)CC1 [Olaparib] (first compound max 0.001 µM, 7x7, partner max 10 µM), the Bliss excess in the experiment on J82 (Bladder Carcinoma) was 0.0123; in [1], -0.0202; in experiment [2] it was -0.0446; in experiment [3], -0.0087; in the experiment on ES7 (Ewing's Sarcoma) it was 0.0011; in [4], -0.0185. The Bliss excess in [5] is -0.0739; in the experiment on CAL-78 (Chondrosarcoma), -0.0831; in the experiment on IGR-1 (Melanoma), -0.0189; in experiment [6], 0.002; in experiment [7] it was -0.0546; in experiment [8], -0.0305. For the same molecule, the Bliss excess in [9] was -0.0381; in [10] it was -0.0029; in experiment [11], -0.0323; in experiment [12], 0.0091; in experiment [13], 0.0107; in experiment [14], -0.0528. The Bliss excess was -0.0365 in [15] and -0.0261 in [16].
